Results on 8 molecules are retold here after US20130231311A1, “NOVEL FORMULATIONS FOR TREATMENT OF MIGRAINE” (ZOGENIX, INC., priority 2008, published 2013).

Several values for one entry are separate records, joined by “and”; a condition that tells them apart may be missing. Identical values can stand only once. Like-named read-outs stand apart in the source and are kept apart here.

For data set [1] the following is noted: in vivo; cited from earlier work.
Data set [2] deals with migraine. As to conditions: in vivo; cited from earlier work.
In data set [3] the test system is migraine. The data set is described as follows: pain relief at 2 hours, injected versus oral sumatriptan (FIG. 2). Type of data set: in vivo. To be noted: via injection, 107 minutes after maximum plasma concentration. An excerpt:
(§1) FIG. 2 is a Table comparing pharmacokinetic and pharmacodynamic parameters of subcutaneously injected and oral sumatriptan.
(§2) FIG. 2 compares pharmacokinetic parameters of injected sumatriptan with oral sumatriptan.

A short description of data set [4]: pharmacokinetic parameters of injected versus oral sumatriptan (FIG. 2). It is filed as in vivo. As to conditions: injected vs oral; injected dose is 3% of the oral dose.
Source text: as §1, §2

The test system of data set [5] is migraine. To be noted: cited from earlier work.
A short description of data set [6]: time to peak plasma concentration of triptans (FIG. 3). As to conditions: in vivo.

On to `CNS(=O)(=O)CCc1ccc2[nH]cc(C3CCN(C)CC3)c2c1` [naratriptan], for which, in data set [1], the half life was 5 to 8 h. On to `CN1CCC[C@@H]1Cc1c[nH]c2ccc(CCS(=O)(=O)c3ccccc3)cc12` [eletriptan], for which the half life in data set [1] was 4 h. Consider `CN[C@@H]1CCc2[nH]c3ccc(C(N)=O)cc3c2C1` [frovatriptan], for which the half life in data set [1] was 26 h. Consider `CN(C)CCc1c[nH]c2ccc(C[C@H]3COC(=O)N3)cc12` [zolmitriptan], for which the half life in data set [1] was 3 h. Further, in the data set on migraine [2], the “pain relief at two hours compared with rizatriptan” value is recorded as “less than that of rizatriptan”. Take `CN(C)CCc1c[nH]c2ccc(CS(=O)(=O)N3CCCC3)cc12` [almotriptan]: the half life in data set [1] was 3 to 4 h.

As to `CNS(=O)(=O)Cc1ccc2[nH]cc(CCN(C)C)c2c1` [sumatriptan], the “pain relief at 2 hours, injected vs oral dose” value in the data set with migraine [3] is given as “better for the injected dose than for the oral dose”. The half life in data set [1] is 2.5 h. For the same molecule, the “pain relief at two hours compared with rizatriptan” value with migraine [2] was “less than that of rizatriptan”. Further, in data set [4], the “AUC relative to oral dose” value is on record as “about ⅕” and the “maximum concentration relative to oral dose” value is listed as “approximately half”.

`O=C(O)Cc1ccccc1Nc1c(Cl)cccc1Cl` [diclofenac]: the effectiveness with migraine [5] (intramuscular) was 70% and 88%; in the data set with migraine [5] (oral), 44%. As for `CN(C)CCc1c[nH]c2ccc(Cn3cncn3)cc12` [rizatriptan], the “time to peak plasma concentration, earlier than sumatriptan and zolmitriptan” value in data set [6] was about 1 h. Further, the half life in data set [1] is 2 to 3 h.
